This is an account of results in patent publication US11298356B1, “Amorphous solid dispersions of dasatinib and uses thereof” (NANOCOPOEIA, LLC, priority 2020, dated 2022).

In brackets after ≈: the same amount, converted by molar mass. Some results are limits rather than exact numbers.

As usually defined, the solubility is how much of the substance goes into solution per volume. Lower therefore signals little dissolved substance.

Series [1] in a line: Aqueous solubility of dasatinib (internal experimentation). It is filed as physicochemical. Particulars: aqueous medium. An excerpt:
Dasatinib in crystalline forms is categorized as a Biopharmaceutical Classification System (“BCS”) Class II (low solubility/high permeability) compound. […] A preparation of dasatinib in a form that is intended to enhance its solubility could increase its bioavailability. One approach for enhancing solubility is to produce an amorphous solid dispersion.

For series [2] the following is noted: crystalline forms; low solubility/high permeability; cited from earlier work.
For series [3] the following is noted: Comparative Example; promptly after spray drying and drying.
Protocol: (§1) Each of the resulting ASDs was placed on stability under accelerated conditions at 40° C./75% RH. The ASDs were assessed at t=0 (i.e., after the secondary drying step), 2 weeks, 1 month, 2 months, 3 months, and 6 months for appearance, amorphicity, glass transition temperature, water content, and assay/total impurities.
Amorphicity (i.e., the lack of crystallinity) for the ASDs was assessed by XRD. Diffraction patterns were obtained using a Rigaku MiniFlex 600. The X-ray source was a long anode Cu Kα. Samples were prepared by placing a small amount of ASD powder on a Rigaku zero-background sample holder with a 0.1 mm indent. A glass slide was then used to firmly pack the powder and ensure the surface of the sample was level with the edge of the sample holder.
Rigaku Data Analysis Software PDXL 2.4.2.0 was used to determine crystallinity. Briefly, a linear background was obtained by connecting the beginning and end of each diffractogram. Peaks were then fitted to split pseudo-Voigt shape by the Lorentzian function. Generally, narrow peaks with full width at half maximum (FWHM) less than 1° were assigned as crystalline phase. If no crystalline phase was detected, the sample was deemed to be amorphous.
The conditions of series [4]: Comparative Example; promptly after preparation.
Protocol: as §1
In general, about 5-10 mg of ASD powder was loaded in a TA Tzero low-mass aluminum pan and sealed with a Tzero lid.

As to `Cc1nc(Nc2ncc(C(=O)Nc3c(C)cccc3Cl)s2)cc(N2CCN(CCO)CC2)n1` [Dasatinib, N-(2-chloro-6-methylphenyl)-2-[[6-[4-(2-hydroxyethyl)-1-piperazinyl]-2-methyl-4-pyrimidinyl]amino]-5-thiazolecarboxamide], the solubility in series [1] (pH 2, simulated gastric fluid) was ~1400 µg/mL (≈ 2870 µM); in series [1] (pH 6.2, aqueous buffer), < 1 µg/mL. Moreover, in series [2], the “Biopharmaceutical Classification System (BCS) class” value is given as “Class II”.
On to `Cc1nc(Nc2ncc(C(=O)Nc3c(C)cccc3Cl)s2)cc(N2CCN(CCO)CC2)n1` [spray-dried material of 100% dasatinib], for which the XRD crystallinity result in series [3] is listed as “exhibited crystalline character”. The “glass transition temperature (Tg)” value in series [4] stood at 125.61 °C.
